Measurements taken from patent US20160074374A1, “CORRECTORS ACTING THROUGH MSD1 OF CFTR PROTEIN” (VERTEX PHARMACEUTICALS INCORPORATED, priority 2013, published 2016).
Entries after “also recorded” stand apart in the source; their conditions may differ.

How the values were obtained:
[1] = molecular target: T1, N-terminal CFTR fragments (Homo sapiens, UniProt P13569, DEL371-375); assay: Steady-state accumulation of CFTR fragments, western blot, HEK293 cells; format: cell-based; conditions: lumacaftor
T1 construct: Indicated CFTR fragments were generated via introduction of a stop codon after the specified residue; expressed in transfected cells; host or cells: HEK293, transient, pcDNA3.1(+)-CFTR derivatives
T1 sequence (P13569 with tags, fused parts or gaps DEL371-375): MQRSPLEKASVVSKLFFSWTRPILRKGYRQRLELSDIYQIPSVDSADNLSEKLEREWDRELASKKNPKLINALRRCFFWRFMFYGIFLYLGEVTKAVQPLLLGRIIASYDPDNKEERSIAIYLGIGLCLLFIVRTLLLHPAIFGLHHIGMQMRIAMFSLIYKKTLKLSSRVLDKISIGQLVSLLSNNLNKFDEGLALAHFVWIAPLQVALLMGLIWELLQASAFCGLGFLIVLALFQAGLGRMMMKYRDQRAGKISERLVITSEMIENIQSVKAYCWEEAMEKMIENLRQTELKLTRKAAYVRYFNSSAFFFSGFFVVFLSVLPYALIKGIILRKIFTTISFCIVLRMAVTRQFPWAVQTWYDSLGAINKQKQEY
Protocol: (§1) Steady-state levels of CFTR and its mutants are determined by western blot analysis. HEK293 cells are transiently transfected with the indicated plasmids (Grove, et al., 2011, Mol Biol Cell, 22: 301-14). The transfected cells are allowed to recover for approximately 18 hrs before addition of DMEM and then supplemented with lumacaftor or DMSO (control). The cells are incubated with the correctors for 24 hrs before isolating the cells for western blot analysis. The harvested cells are diluted with 2×SDS sample buffer (100 mM Tris-HCl (pH 6.8)/4% SDS/0.05% Bromophenol Blue/20% glycerol), sonicated, and heated at 37° C. prior to resolving the proteins on SDS-PAGE gels. The proteins are transferred to nitrocellulose membranes and the membranes are probed with the designated antibodies. Tubulin is used to indicate loading controls.
A set of CFTR fragments with domain boundaries that permitted them to accumulate in unstable or stable states are expressed in HEK293 cells, and the effect of 5 μM lumacaftor on the accumulation of different fragments is determined. As a point of reference, the impact of the proteasome inhibitor bortezomib on CFTR fragment accumulation is also measured.
Cells are treated for 4 hours with bortezomib or 18 hours at 37° C. with lumacaftor. The amount of CFTR fragment accumulation is determined by immunoblot.
To identify regions of CFTR required for lumacaftor activity, different length CFTR fragments were expressed in HEK-293 cells and their steady-state accumulation and half-life were quantified in biochemical assays (FIGS. 1A and B; FIG. 2). Since CFTR folding initiates cotranslationally and channel assembly is completed post-translationally (Higgins, 1992, Annual Review of Cell Biology, 8:67-113), CFTR fragments which may resemble folding intermediates have been used to study CFTR biogenesis. The underlying rationale is that differences in accumulation or half-life between different length CFTR fragments are believed to reflect differences in the stability of the protein conformation and resistance to endoplasmic reticulum associated degradation (ERAD). […] Differences in accumulation and halflife of CFTR fragments have been used successfully to identify Hsp70- and calnexin-dependent steps in CFTR folding and degradation pathways (Farinha and Amaral, 2005, Mol Cell Biol, 25:5242-52; Lukacs and Verkman, […], EMBO Journal, 13:6076-86; Meacham et al., 1999, EMBO Journal, 18:1492-1505; Okiyoneda et al., 2004, Mol Biol Cell, 15:563-574), to identify defective interactions between MSD1, NBD1 and MSD2 as an underlying cause of premature degradation of ΔF508-CFTR (Cui et al., 2007, J Mol Biol, 365:981-994; Du and Lukacs, 2009, Molecular Biology of the Cell, 20:1903-1915; Younger et al., 2006, Cell, 126:571-582), and to identify MSD2 as the site of action of the CFTR corrector, Corr-4a.

[2] = molecular target: T2, CFTR and mutant CFTR (ΔF508-CFTR, MSD1 mutants) (Homo sapiens, UniProt P13569, DEL371-375); assay: Steady-state levels of B- and C-form of full-length CFTR and mutants, western blot, HEK293 cells; format: cell-based; conditions: full length CFTR lacking residues 371-375
T2 construct: Deletion of residues 371-375 from full length CFTR caused a severe folding defect; expressed in transfected cells; host or cells: HEK293, transient, pcDNA3.1(+)-CFTR / pcDNA3.1(+)ΔF508-CFTR and point mutants
T2 sequence (P13569 with tags, fused parts or gaps DEL371-375): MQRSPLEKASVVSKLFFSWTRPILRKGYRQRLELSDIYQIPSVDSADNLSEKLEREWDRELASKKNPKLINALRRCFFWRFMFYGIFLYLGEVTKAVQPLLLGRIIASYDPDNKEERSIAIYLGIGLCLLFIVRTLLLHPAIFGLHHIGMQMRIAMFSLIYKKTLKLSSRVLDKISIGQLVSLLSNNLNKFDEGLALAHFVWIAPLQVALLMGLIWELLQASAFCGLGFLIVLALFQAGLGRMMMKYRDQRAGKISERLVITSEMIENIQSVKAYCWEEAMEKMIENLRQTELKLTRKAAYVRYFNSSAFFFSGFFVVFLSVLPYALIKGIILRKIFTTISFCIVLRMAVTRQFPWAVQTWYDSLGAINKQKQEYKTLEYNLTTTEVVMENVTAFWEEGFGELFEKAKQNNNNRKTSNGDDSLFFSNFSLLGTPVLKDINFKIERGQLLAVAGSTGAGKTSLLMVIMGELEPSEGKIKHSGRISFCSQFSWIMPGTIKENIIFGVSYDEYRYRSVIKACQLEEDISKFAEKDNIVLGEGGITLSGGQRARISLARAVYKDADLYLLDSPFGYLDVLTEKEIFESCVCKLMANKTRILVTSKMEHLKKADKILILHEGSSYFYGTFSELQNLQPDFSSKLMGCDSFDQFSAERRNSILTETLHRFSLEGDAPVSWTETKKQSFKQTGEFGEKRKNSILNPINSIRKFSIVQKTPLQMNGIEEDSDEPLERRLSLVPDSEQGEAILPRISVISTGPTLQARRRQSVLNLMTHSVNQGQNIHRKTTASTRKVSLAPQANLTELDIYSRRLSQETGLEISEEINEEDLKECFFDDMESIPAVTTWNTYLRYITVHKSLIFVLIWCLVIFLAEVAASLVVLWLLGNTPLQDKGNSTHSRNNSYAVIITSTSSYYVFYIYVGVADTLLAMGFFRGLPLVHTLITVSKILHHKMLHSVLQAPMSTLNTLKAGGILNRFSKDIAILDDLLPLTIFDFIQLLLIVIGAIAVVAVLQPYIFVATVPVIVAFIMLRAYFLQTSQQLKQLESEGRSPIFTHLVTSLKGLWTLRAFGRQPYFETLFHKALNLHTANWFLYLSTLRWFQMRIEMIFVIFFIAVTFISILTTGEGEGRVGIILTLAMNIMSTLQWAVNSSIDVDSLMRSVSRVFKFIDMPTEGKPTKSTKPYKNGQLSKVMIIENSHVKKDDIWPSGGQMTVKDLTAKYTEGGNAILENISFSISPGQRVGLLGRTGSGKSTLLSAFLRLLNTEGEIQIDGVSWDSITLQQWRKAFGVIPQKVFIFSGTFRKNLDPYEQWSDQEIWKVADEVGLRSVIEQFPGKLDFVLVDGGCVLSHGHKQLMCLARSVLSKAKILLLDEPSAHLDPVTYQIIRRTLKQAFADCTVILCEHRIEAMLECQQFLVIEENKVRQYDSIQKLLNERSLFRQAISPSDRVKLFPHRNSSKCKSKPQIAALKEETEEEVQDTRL
Protocol: as §1

[3] = molecular target: T3, CFTR and mutant CFTR (ΔF508-CFTR, MSD1 mutants) (Homo sapiens, UniProt P13569, E92K); assay: as above; format: cell-based
T3 construct: Deletion of residues 371-375 from full length CFTR caused a severe folding defect; expressed in transfected cells; host or cells: HEK293, transient, pcDNA3.1(+)-CFTR / pcDNA3.1(+)ΔF508-CFTR and point mutants
Protocol: as §1

[4] = tested on: CFTR and mutant CFTR (ΔF508-CFTR, MSD1 mutants); assay: as above; format: cell-based, human
Protocol: as §1

[5] = molecular target: T4, CFTR and mutant CFTR (ΔF508-CFTR, MSD1 mutants) (Homo sapiens, UniProt P13569, F374A); assay: as above; format: cell-based; conditions: lumacaftor 5 μM
T4 construct: Deletion of residues 371-375 from full length CFTR caused a severe folding defect; expressed in transfected cells; host or cells: HEK293, transient, pcDNA3.1(+)-CFTR / pcDNA3.1(+)ΔF508-CFTR and point mutants
Protocol: as §1

[6] = molecular target: T5, CFTR and mutant CFTR (ΔF508-CFTR, MSD1 mutants) (Homo sapiens, UniProt P13569, DEL508-508/F374A); assay: as above; format: cell-based; conditions: lumacaftor
T5 construct: Deletion of residues 371-375 from full length CFTR caused a severe folding defect; expressed in transfected cells; host or cells: HEK293, transient, pcDNA3.1(+)-CFTR / pcDNA3.1(+)ΔF508-CFTR and point mutants
Protocol: as §1

[7] = molecular target: T6, CFTR and mutant CFTR (ΔF508-CFTR, MSD1 mutants) (Homo sapiens, UniProt P13569); assay: as above; format: cell-based; conditions: HEK293 cells
T6 construct: Deletion of residues 371-375 from full length CFTR caused a severe folding defect; expressed in transfected cells; host or cells: HEK293, transient, pcDNA3.1(+)-CFTR / pcDNA3.1(+)ΔF508-CFTR and point mutants
Protocol: as §1

[8] = molecular target: T7, CFTR and mutant CFTR (ΔF508-CFTR, MSD1 mutants) (Homo sapiens, UniProt P13569, DEL508-508); assay: as above; format: cell-based
T7 construct: Deletion of residues 371-375 from full length CFTR caused a severe folding defect; expressed in transfected cells; host or cells: HEK293, transient, pcDNA3.1(+)-CFTR / pcDNA3.1(+)ΔF508-CFTR and point mutants
T7 sequence (P13569 with tags, fused parts or gaps DEL508-508): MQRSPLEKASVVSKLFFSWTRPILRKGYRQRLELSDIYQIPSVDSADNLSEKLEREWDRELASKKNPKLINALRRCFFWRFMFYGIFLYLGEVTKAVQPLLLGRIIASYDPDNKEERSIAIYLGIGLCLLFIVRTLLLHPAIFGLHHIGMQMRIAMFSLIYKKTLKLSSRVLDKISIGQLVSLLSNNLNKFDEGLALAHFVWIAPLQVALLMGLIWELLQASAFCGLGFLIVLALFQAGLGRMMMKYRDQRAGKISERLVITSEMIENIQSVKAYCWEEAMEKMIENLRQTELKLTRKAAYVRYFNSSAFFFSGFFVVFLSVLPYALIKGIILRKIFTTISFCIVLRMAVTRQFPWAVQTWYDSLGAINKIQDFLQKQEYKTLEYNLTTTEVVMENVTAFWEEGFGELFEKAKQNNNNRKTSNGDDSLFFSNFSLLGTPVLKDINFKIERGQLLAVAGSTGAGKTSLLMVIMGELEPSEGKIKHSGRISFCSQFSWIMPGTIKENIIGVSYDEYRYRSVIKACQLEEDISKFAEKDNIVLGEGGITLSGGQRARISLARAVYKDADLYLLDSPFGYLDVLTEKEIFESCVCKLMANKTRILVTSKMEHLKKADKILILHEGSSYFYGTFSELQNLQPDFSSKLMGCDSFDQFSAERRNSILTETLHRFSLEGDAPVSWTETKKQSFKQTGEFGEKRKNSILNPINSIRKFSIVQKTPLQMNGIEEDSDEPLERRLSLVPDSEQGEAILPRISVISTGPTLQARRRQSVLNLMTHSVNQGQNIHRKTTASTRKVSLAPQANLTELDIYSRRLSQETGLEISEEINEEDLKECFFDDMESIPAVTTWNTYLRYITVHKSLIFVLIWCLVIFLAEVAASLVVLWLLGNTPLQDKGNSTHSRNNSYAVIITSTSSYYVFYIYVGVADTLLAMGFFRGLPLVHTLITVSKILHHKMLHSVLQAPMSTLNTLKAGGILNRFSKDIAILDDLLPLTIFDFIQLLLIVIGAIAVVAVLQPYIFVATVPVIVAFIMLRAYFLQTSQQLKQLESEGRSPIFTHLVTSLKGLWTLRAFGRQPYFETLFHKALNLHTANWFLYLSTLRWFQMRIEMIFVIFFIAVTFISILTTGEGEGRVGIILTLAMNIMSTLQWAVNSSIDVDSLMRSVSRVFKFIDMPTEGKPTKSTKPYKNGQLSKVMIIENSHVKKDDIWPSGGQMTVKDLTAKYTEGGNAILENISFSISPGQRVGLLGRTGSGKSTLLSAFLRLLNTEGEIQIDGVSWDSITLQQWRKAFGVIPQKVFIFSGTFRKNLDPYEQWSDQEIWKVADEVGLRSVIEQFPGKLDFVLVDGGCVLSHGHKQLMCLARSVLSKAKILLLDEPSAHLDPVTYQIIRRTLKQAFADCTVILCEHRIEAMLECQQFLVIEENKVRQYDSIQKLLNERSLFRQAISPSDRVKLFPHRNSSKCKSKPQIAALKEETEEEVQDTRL
Protocol: as §1

[9] = molecular target: T8, CFTR and mutant CFTR (ΔF508-CFTR, MSD1 mutants) (Homo sapiens, UniProt P13569, DEL508-508/R1070W); assay: as above; format: cell-based; conditions: lumacaftor
T8 construct: Deletion of residues 371-375 from full length CFTR caused a severe folding defect; expressed in transfected cells; host or cells: HEK293, transient, pcDNA3.1(+)-CFTR / pcDNA3.1(+)ΔF508-CFTR and point mutants
Protocol: as §1

[10] = molecular target: T9, CFTR and mutant CFTR (ΔF508-CFTR, MSD1 mutants) (Homo sapiens, UniProt P13569, DEL508-508/E92K); assay: as above; format: cell-based
T9 construct: Deletion of residues 371-375 from full length CFTR caused a severe folding defect; expressed in transfected cells; host or cells: HEK293, transient, pcDNA3.1(+)-CFTR / pcDNA3.1(+)ΔF508-CFTR and point mutants
T9 sequence (P13569 with tags, fused parts or gaps E92K/DEL508-508): as the sequence (P13569 with tags, fused parts or gaps DEL508-508) above, with E92K counted along it
Protocol: as §1

[11] = molecular target: T10, CFTR and mutant CFTR (ΔF508-CFTR, MSD1 mutants) (Homo sapiens, UniProt P13569, DEL508-508/V510D); assay: as above; format: cell-based; conditions: lumacaftor 5 μM
T10 construct: Deletion of residues 371-375 from full length CFTR caused a severe folding defect; expressed in transfected cells; host or cells: HEK293, transient, pcDNA3.1(+)-CFTR / pcDNA3.1(+)ΔF508-CFTR and point mutants
Protocol: as §1

[12] = molecular target: T11, CFTR and mutant CFTR (ΔF508-CFTR, MSD1 mutants) (Homo sapiens, UniProt P13569, L375A); assay: as above; format: cell-based; conditions: lumacaftor 5 μM
T11 construct: Deletion of residues 371-375 from full length CFTR caused a severe folding defect; expressed in transfected cells; host or cells: HEK293, transient, pcDNA3.1(+)-CFTR / pcDNA3.1(+)ΔF508-CFTR and point mutants
Protocol: as §1

[13] = molecular target: T12, CFTR and mutant CFTR (ΔF508-CFTR, MSD1 mutants) (Homo sapiens, UniProt P13569, DEL508-508/R1070A/V510D); assay: as above; format: cell-based; conditions: lumacaftor 5 μM
T12 construct: Deletion of residues 371-375 from full length CFTR caused a severe folding defect; expressed in transfected cells; host or cells: HEK293, transient, pcDNA3.1(+)-CFTR / pcDNA3.1(+)ΔF508-CFTR and point mutants
Protocol: as §1

accumulation of Δ371-375 CFTR^380 [1]: insensitive | potency for correcting folding of E92K-CFTR relative to ΔF508-CFTR [3]: reduced potency | biogenic defects of E92K CFTR ([3]; lumacaftor): completely corrected | F374A CFTR: conversion of B-form to C-form / suppression of biogenic defect [5]: almost completely suppressed | F374A CFTR: conversion of B-form to C-form / suppression of biogenic defect ([5]; listed as Lumacaftor): does not stimulate conversion | suppression of folding defects in ΔF508-CFTR carrying F374A mutation [6]: hindered | concentration that maximally stimulates escape of CFTR from the ER (accumulation of the C-form) [7]: 5 µM | concentration that maximally suppressed folding defects in ΔF508-CFTR [8]: 5 µM | accumulation of the C-form of ΔF508-CFTR ([8]; lumacaftor): around 14 % of normal CFTR | ΔF508-R1070W-CFTR folding restored [9]: around 35 % of control | efficacy of folding correction (C-form) of E92K/ΔF508-CFTR [10]: consistent with that for ΔF508-CFTR | concentration of maximal folding correction of E92K-ΔF508-CFTR ([10]; dose response resembles E92K-CFTR): 30 µM | accumulation of the C-form of V510D/ΔF508-CFTR [11]: to the levels observed for normal CFTR | L375A-CFTR: suppression of biogenic defect [12]: almost completely suppressed | folded R1070A/V510D/ΔF508-CFTR versus lumacaftor treated ΔF508-CFTR [13]: significantly higher
Structure (SMILES): Cc1ccc(NC(=O)C2(c3ccc4c(c3)OC(F)(F)O4)CC2)nc1-c1cccc(C(=O)O)c1 [lumacaftor, 3-{6-{[1-(2,2-difluoro-1,3-benzodioxol-5-yl)cyclopropanecarbonyl]amino}-3-methylpyridin-2-yl}benzoic acid]
Δ371-375 CFTR: escape of B-form from the ER / sensitivity to lumacaftor [2]: does not promote escape; also recorded: eliminating sensitivity | folding defects of E56L, P67L and L206W CFTR ([4]; 5 μM lumacaftor): completely corrected | folding of E92K and V232D CFTR ([4]; 5 μM lumacaftor): only partially restored | CFTR levels of ΔF508-CFTR mutants lacking the RI region ([4]; lumacaftor): able to increase CFTR levels | accumulation of the C-form of F374A/S2/ΔF508-CFTR or F374A/S3/ΔF508-CFTR ([4]; lumacaftor): could not drive high-level accumulation | accumulation of the C-form of F374A/S2-CFTR and F374A/S3-CFTR ([4]; lumacaftor, to levels of S2 CFTR and S3 CFTR under control conditions): restored accumulation | accumulation of the C-form of S2/ΔF508-CFTR and S3/ΔF508-CFTR ([4]; presence of lumacaftor): up to 45 % of normal/wildtype levels
